This is an account of results in patent EP4647433A1, “SHP2 INHIBITOR AND USES THEREOF” (Kanaph Therapeutics Inc., priority 2023, dated 2024).

Where only a bound is given, the exact number is not on record here.

A short description of data set [1]: Brain-plasma Pharmacokinetics. The conditions noted are these: male, CD-1 (ICR), mouse, brain/plasma, 20 mg/kg.
Description: (§1) Nine male CD-1 mice (ICR mouse) aged 6 to 9 weeks were treated with the compounds according to the Examples at a concentration of 20 mg/kg. 0.025 mL of blood and brain tissue were collected at 1 hour, 8 hours, and 24 hours post-treatment, respectively. The collected blood was placed in an EDTA-K2 tube, centrifuged at 4°C at 3,200 x g for 10 minutes, and the supernatant plasma was collected. The brain tissue samples were collected immediately after euthanizing the CD-1 mice after blood collection and performing cardiac perfusion with cold saline. After collection, the brain tissues were washed with cold saline, wiped and dried, weighed, and homogenized using a homogenization buffer (15 mM PBS (pH 7.4): MeOH = 2:1) at a ratio of 1:3 (1 g of tissue to 3 mL of buffer, dilution ratio 4). Plasma and homogenized brain tissue samples were each transferred to a polypropylene microcentrifuge tube and stored at -60°C or lower. The concentration of compounds distributed in plasma and brain tissue was analyzed using LC-MS/MS, and the distribution in brain tissue compared to plasma was calculated as follows. Brain-to-plasma ratio = AUC(0-t) brain tissue /AUC(0-t) plasma [formula]
(§2) In the Brain-plasma Pharmacokinetics assay, when a brain-to-plasma ratio value was 0.05 or more and less than 0.1, + was indicated, when a brain-to-plasma ratio value was 0.1 or more and less than 0.25, ++ was indicated, and when a brain-to-plasma ratio value was more than 0.25, +++ was indicated.
Data set [2] concerns H358 cells. Description: Cell viability (3D spheroid, 3D CellTiter-Glo). The class given is cell-based. The conditions noted are these: Homo sapiens, NCI-H358, 120 h; H358 spheroids, 5 days treatment. The method in brief: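 H358 human NSCLC cells (4 x 10^3/well) grown 72 h in RPMI-1640 with 10% FBS to form spheroids, then treated with serially diluted compounds (1.5 nM–10 µM) for 5 days. Viability read by 3D CellTiter-Glo luminescence after 25 min at room temperature; IC50 from concentration–response.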
For orientation: ATP-based viability assays read luminescence as a measure of living cells.

Data set [3] deals with phospho-ERK. In words: phospho-ERK assay (AlphaLisa) in H358 cells. The class given is cell-based. As to conditions: Homo sapiens, NCI-H358, 1.5 hours incubation, read-out: pERK assay (IC50). The method, then: H358 [20,000 cell/well] was contained in 40 µL of the cell culture solution (RPMI, 10% FBS, penicillin, streptomycin) and placed on a 384-well plate. After 24 hours, the serially diluted compound according to the Examples (concentration of minimum 0.13 nM, maximum 10 µM) was contained in 10 µL of the cell culture solution, put into wells containing cells, and incubated in a cell incubator for 1.5 hours. As a positive control group, the selective SHP2 inhibitor, TNO155 (Chemietek, US; concentration ranging from 0.13 nM to 10 µM) was used.
Thereafter, phospho-ERK was labeled using an AlphaLisa system from PerkinElmer according to the manufacturer's instructions, and then fluorescence (680 nm excitation wavelength, 615 nm emission wavelength) values were measured using a Varioskan equipment from Thermo. IC50 values were obtained using Graphad's Prism from the measured values depending on the concentration.
Intracellular SHP2 activity can be confirmed by measuring the degree of phosphorylation of ERK (extracellular signal regulated kinase), which represents Ras/Raf/ERK, a downstream signal pathway of SHP2. Inhibition of ERK phosphorylation by SHP2 inhibitors was confirmed through phospho-ERK analysis, which confirmed that the SHP2 inhibitors of the present disclosure have excellent activity in inhibiting ERK phosphorylation mediated by SHP2.

In data set [4] the target is T1, SHP2 (Homo sapiens, UniProt Q06124).
T1 construct: SHP2 (full length, diluted to 100 pM final concentration in reaction buffer, BPS bioscience, US); purchased BPS bioscience, US
T1 sequence (Q06124 1-593): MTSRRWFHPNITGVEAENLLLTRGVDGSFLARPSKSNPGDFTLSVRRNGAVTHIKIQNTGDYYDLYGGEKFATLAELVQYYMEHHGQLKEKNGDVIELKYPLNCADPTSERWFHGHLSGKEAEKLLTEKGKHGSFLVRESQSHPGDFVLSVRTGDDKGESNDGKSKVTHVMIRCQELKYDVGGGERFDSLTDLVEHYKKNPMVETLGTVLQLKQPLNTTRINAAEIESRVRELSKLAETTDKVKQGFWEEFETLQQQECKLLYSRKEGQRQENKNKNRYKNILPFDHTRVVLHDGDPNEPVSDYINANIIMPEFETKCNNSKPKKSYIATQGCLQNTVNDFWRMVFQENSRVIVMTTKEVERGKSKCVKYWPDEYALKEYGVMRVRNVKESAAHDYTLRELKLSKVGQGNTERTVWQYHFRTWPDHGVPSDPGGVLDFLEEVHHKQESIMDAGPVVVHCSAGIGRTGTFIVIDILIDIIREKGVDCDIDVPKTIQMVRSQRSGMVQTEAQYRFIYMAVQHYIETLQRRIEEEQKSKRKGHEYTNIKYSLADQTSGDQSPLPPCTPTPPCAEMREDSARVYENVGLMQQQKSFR
Description: Phosphatase assay (PTPase assay, DiFMUP substrate). The class given is biochemical. The conditions noted are these: full length SHP2 100 pM activated with SHP2 activating peptide, DiFMUP 80 µM, 2 hours; read-out: PTPase assay (IC50). The method in brief: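 Full-length SHP2 at 100 pM final was activated with SHP2 activating peptide for 30 min in HEPES buffer pH 7.2 with NaCl, KCl, EDTA, DTT and P-20, then compound (0.6 nM–10 µM) added. DiFMUP (80 µM) was reacted for 2 h in total; fluorescence read at 340/450 nm and IC50 fitted from concentration-response.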

A short description of data set [5]: in vivo. The conditions noted are these: mouse, 20 mg/kg.
Description: as §1, §2

By IC50 is commonly meant the concentration that gives 50% inhibition. `COC(C)(C)Cn1ccc2ccc(Sc3cnc(N4CCC5(CC4)Cc4ccccc4[C@H]5N)cn3)c(Cl)c2c1=O` [Example 43, (S)-7-((5-(1-amino-1,3-dihydrospiro[indene-2,4'-piperidin]-1'-yl)pyrazin-2-yl)thio)-8-chloro-2-(2-methoxy-2-methylpropyl)isoquinolin-1(2H)-one] returned a Kp at 24 h in data set [1] above 0.25. Further, the IC50 in data set [2] was below 0.01 µM; in data set [3] it was 0.045 to 1.5 µM; in data set [4], below 0.003 µM.
The like results for `COC(C)(C)Cn1ccc2ccc(Sc3cnc(N4CCC5(CC4)Cc4ccccc4[C@H]5N)cn3)cc2c1=O` [Example 44, (S)-7-((5-(1-amino-1,3-dihydrospiro[indene-2,4'-piperidin]-1'-yl)pyrazin-2-yl)thio)-2-(2-methoxy-2-methylpropyl)isoquinolin-1(2H)-one] were, in that order, above 0.25, below 0.01 µM, 0.045 to 1.5 µM and 0.003 to 0.1 µM.
In data set [1], `Cn1ccc2ccc(Sc3cnc(N4CCC5(CC4)Cc4ccccc4[C@H]5N)cn3)cc2c1=O` [Example 45, (S)-7-((5-(1-amino-1,3-dihydrospiro[indene-2,4'-piperidin]-1'-yl)pyrazin-2-yl)thio)-2-methylisoquinolin-1(2H)-one] yielded a Kp at 24 h of 0.1 to 0.25. Further, the IC50 was below 0.01 µM in data set [2], 0.045 to 1.5 µM in data set [3] and below 0.003 µM in data set [4].
Taken in the same sequence, the figures for `Cn1ccc2ccc(Sc3ncc(N4CCC5(CC4)Cc4ccccc4[C@H]5N)nc3N)c(Cl)c2c1=O` [Example 47, (S)-7-((3-amino-5-(1-amino-1,3-dihydrospiro[indene-2,4'-piperidin]-1'-yl)pyrazin-2-yl)thio)-8-chloro-2-methylisoquinolin-1(2H)-one] were 0.1 to 0.25, below 0.01 µM, below 0.045 µM and below 0.003 µM.
As for `CC(C)n1ccc2ccc(Sc3ncc(N4CCC5(CC4)Cc4ccccc4[C@H]5N)nc3N)c(Cl)c2c1=O` [Example 48, (S)-7-((3-amino-5-(1-amino-1,3-dihydrospiro[indene-2,4'-piperidin]-1'-yl)pyrazin-2-yl)thio)-8-chloro-2-isopropylisoquinolin-1(2H)-one], the Kp at 24 h in data set [1] fell in the range of 0.1 to 0.25. Further, the IC50 was below 0.01 µM in data set [2], 0.045 to 1.5 µM in data set [3] and below 0.003 µM in data set [4].
In data set [1], `COC(C)Cn1ccc2ccc(Sc3ncc(N4CCC5(CC4)Cc4ccccc4[C@H]5N)nc3N)c(Cl)c2c1=O` (some centres unmarked) [Example 49] registered a Kp at 24 h of 0.1 to 0.25. Also, the IC50 in data set [2] was below 0.01 µM; in data set [3] it was below 0.045 µM; in data set [4] it was below 0.003 µM.
The compound `COC(C)(C)Cn1cnc2ccc(Sc3cnc(N4CCC5(CC4)Oc4ccccc4[C@H]5N)cn3)c(Cl)c2c1=O` [Example 50, (R)-6-((5-(3-amino-3H-spiro[benzofuran-2,4'-piperidin]-1'-yl)pyrazin-2-yl)thio)-5-chloro-3-(2-methoxy-2-methylpropyl)quinazolin-4(3H)-one] returned a concentration for half-maximal inhibition (IC50) in data set [2] below 0.01 µM. The compound also registered a Kp at 24 h in data set [5] above 0.25.
